Holding throughout (type): in vivo
For series [1], the system named is brown planthopper (nilaparvata lugens). Put plainly: Activity against brown planthopper. The settings on record: rice seedlings sprayed, recorded after 24, 72 and 120 hours. Here is the method:
9. Activity against brown planthopper (nilaparvata lugens)
The active compounds were formulated in 50:50 acetone:water. Potted rice seedlings were sprayed with 10 ml test solution, air dried, placed in cages and inoculated with 10 adults. Percent mortality was recorded after 24, 72 and 120 hours.

Series [2] deals with cowpea aphid (aphis craccivora). The experiment in a line: Activity against cowpea aphid. Here is the method: 10. Activity against cowpea aphid (aphis craccivora)
The active compounds were formulated in 50:50 acetone:water. Potted cowpea plants colonized with 100-150 aphids of various stages were sprayed after the pest population has been recorded. Population reduction was recorded after 24, 72, and 120 hours.

The subject of series [3] is German cockroach (Blattella Germanica). Put plainly: Activity via glass contact. The conditions noted are these: rate of 5 ppm, 24 hours after treatment. The source says:
(§1) 1. Activity against Argentine ant (Linepithema humile), harvester ant (Pogonomyrmex californicus), acrobat ant (Crematogaster spp.), carpenter ant (Camponotus floridanus), fire ant (Solenopsis invicta), house fly (Musca domestica), stable fly (Stomoxys calcitrans), flesh fly (Sarcophaga sp.), yellowfever mosquito (Aedes aegyptil), house mosquito (Culex quinquefasciatus), malaria mosquito (Anopheles albimanus), German cockroach (Blattella Germanica), cat flea (Ctenocephalides felis), and brown dog tick (Rhipicephalus sanguineus) via glass contact
(§2) Glass vials were treated with 0.5 ml of a solution of active ingredient in acetone and allowed to dry. Insects or ticks were placed into each vial together with some food and moisture supply.

Series [4] relates to acrobat ant (Crematogaster spp.). The experiment in a line: Activity via glass contact. The settings on record: rate of 10 ppm, 24 hours after treatment.
Source text: as §1, §2

The test system of series [5] is house fly (Musca domestica). Put plainly: Activity via glass contact. The settings on record: rate of 5 ppm, 24 hours after treatment.
Source text: as §1, §2

Series [6] deals with yellowfever mosquito (Aedes aegypti). The experiment in a line: Activity via glass contact. The conditions noted are these: rate of 0.1 ppm, 24 hours after treatment.
Source text: as §1, §2

In series [7] the test system is eastern subterranean termite (Reticulitermes flavipes). Put plainly: Activity via soil contact. The settings on record: rate of 1 weight %, 3 days after treatment. How it is done: (§3) 2. Activity against Argentine ant (Linepithema humile), acrobat ant (Crematogaster spp.), carpenter ant (Camponotus floridanus), fire ant (Solenopsis invicta), and eastern subterranean termite (Reticulitermes flavipes) via soil contact
For termites, a thin layer of 1% agar was dispensed into Petri dishes. A thin layer of pre-treated soil was spread over the agar. For soil treatment, the active ingredient was diluted in acetone on a weight-to-weight basis and incorporated into the soil. Termite workers were introduced into each dish. Filter paper served as a food source. Test dishes were held at about 25° C. Termites were observed daily for mortality (dead or unable to stand upright and showing only weak movement).

For series [8], the system named is carpenter ant (Camponotus floridanus). The experiment in a line: Activity via soil contact. The conditions noted are these: 24 h, read-out: mortality of Camponotus floridanus. How it is done:
as §3
For ants, tests were conducted in Petri dishes. A thin layer of 1% agar in water was dispensed into the dishes and Florida sandy soil was spread over the agar. The active ingredient was dissolved in acetone and dispensed over the sand. Dishes were vented to evaporate the acetone, infested with ants, and covered. A 20% honey water solution was placed in each dish. The dishes were maintained at 22° C. and observed for mortality at various time intervals.

Series [9] concerns eastern subterranean termite (Reticulitermes flavipes). The experiment in a line: Activity via bait. The conditions noted are these: rate of 0.005 weight %; three days after treatment; bait (treated filter paper). How it is done:
3. Activity against Argentine ant (Linepithema humile), acrobat ant (Crematogaster spp.), carpenter ant (Camponotus floridanus), fire ant (Solenopsis invicta), house fly (Musca domestica), eastern subterranean termite (Reticulitermes flavipes), Formosan subterranean termite (Coptotermes formosanus), and German cockroach (Blattella Germanica) via bait
For termites, active ingredient in acetone was applied to filter papers. % a.i. were calculated on basis of the weight of the filter paper. Bioassays were conducted with one treated filter and ca. 30 termite workers per test Petri dish. Test dishes were maintained at 25° C. and observed daily for mortality (dead or moribund insects) or intoxication.

The test system of series [10] is cotton aphid (aphis gossypii). The experiment in a line: Activity against cotton aphid. The conditions noted are these: 120 h, cotton cotyledons dipped, after 5 days. The source says: 5. Activity against cotton aphid (aphis gossypii)
(§4) The active compounds were formulated in 50:50 acetone:water and 100 ppm Kinetic™ surfactant.
Cotton plants at the cotyledon stage (one plant per pot) were infested by placing a heavily infested leaf from the main colony on top of each cotyledon. The aphids were allowed to transfer to the host plant overnight, and the leaf used to transfer the aphids was removed. The cotyledons were dipped in the test solution and allowed to dry. After 5 days, mortality counts were made.

Series [11] has as its system green peach aphid (Myzus persicae). The experiment in a line: Activity against green peach aphid. The settings on record: 120 h, pepper leaves dipped, after 5 days, relative to check plants.
Source text: 6. Activity against green peach aphid (Myzus persicae)
as §4
Pepper plants in the 2nd leaf-pair stage (variety ‘California Wonder’) were infested with approximately 40 laboratory-reared aphids by placing infested leaf sections on top of the test plants. The leaf sections were removed after 24 hr. The leaves of the intact plants were dipped into gradient solutions of the test compound and allowed to dry. Test plants were maintained under fluorescent light (24 hour photoperiod) at about 25° C. and 20-40% relative humidity. Aphid mortality on the treated plants, relative to mortality on check plants, was determined after 5 days.

The next series concerns bean aphid (aphis fabae). Put plainly: Activity against bean aphid. The settings on record: 72 h.
Source text: 7. Activity against bean aphid (aphis fabae)
as §4
Nasturtium plants grown in Metro mix in the 1st leaf-pair stage (variety ‘Mixed Jewle’) were infested with approximately 2-30 laboratory-reared aphids by placing infested cut plants on top of the test plants. The cut plants were removed after 24 hr. Each plant was dipped into the test solution to provide complete coverage of the foliage, stem, protruding seed surface and surrounding cube surface and allowed to dry in the fume hood. The treated plants were kept at about 25° C. with continuous fluorescent light. Aphid mortality was determined after 3 days.

The test system of series [12] is silverleaf whitefly (bemisia argentifolii). Put plainly: Activity against silverleaf whitefly. The conditions noted are these: in Gossypium hirsutum, 72 h. How it is done: 8. Activity against silverleaf whitefly (bemisia argentifolii)
as §4
Selected cotton plants were grown to the cotyledon state (one plant per pot). The cotyledons were dipped into the test solution to provide complete coverage of the foliage and placed in a well-vented area to dry. Each pot with treated seedling was placed in a plastic cup and 10 to 12 whitefly adults (approximately 3-5 day old) were introduced. The insects were colleted using an aspirator and an 0.6 cm, non-toxic Tygon® tubing (R-3603) connected to a barrier pipette tip. The tip, containing the collected insects, was then gently inserted into the soil containing the treated plant, allowing insects to crawl out of the tip to reach the foliage for feeding. The cups were covered with a reusable screened lid (150 micron mesh polyester screen PeCap from Tetko Inc). Test plants were maintained in the holding room at about 25° C. and 20-40% relative humidity for 3 days avoiding direct exposure to the fluorescent light (24 hour photoperiod) to prevent trapping of heat inside the cup. Mortality was assessed 3 days after treatment of the plants.

Series [13] deals with diamond back moth (plutella xylostella). The experiment in a line: Activity against diamond back moth. The conditions noted are these: in Brassica oleracea, foliar, 72 h. Here is the method:
11. Activity against diamond back moth (plutella xylostella)
The active compounds were formulated in 50:50 acetone:water and 0.1% (vol/vol) Alkamuls EL 620 surfactant. A 6 cm leaf disk of cabbage leaves was dipped in the test solution for 3 seconds and allowed to air dry in a Petri plate lined with moist filter paper. The leaf disk was inoculated with 10 third instar larvae and kept at 25-27° C. and 50-60% humidity for 3 days. Mortality was assessed after 72 h of treatment.

A further series relates to Colorado Potato Beetle. Put plainly: Pesticidal action of synergistic mixtures, leaf dip bioassay on potato leaves. The settings on record: Leptinotarsa decemlineata, foliar, 120 h. The source says: (§5) 12. Pesticidal action of synergistic mixtures of compounds of formula I
(§6) Potato plants for Colorado potato beetle and two-leaf cotton plants for tobacco budworm were utilized for bioassays. Excised plant leaves were dipped into 1:1 acetone/water dilutions of the active compounds. After the leaves had dried, they were individually placed onto water-moistened filter paper on the bottoms of Petri dishes. Each dish was infested with 5-7 larvae and covered with a lid. Each treatment dilution was replicated 4 times. Test dishes were held at approximately 27° C. and 60% humidity. Numbers of live and morbid larvae were assessed in each dish at 5 days after treatment application, and percent mortality was calculated.
(§7) To determine if an insecticidal mixture was synergistic, Limpel's formula was used: E=X+Y−XY/100 • E=Expected % mortality of the mixture • X=% mortality of compound X, as measured independently • Y=% mortality of compound Y, as measured independently
(§8) Synergism was evident if the % observed mortality for the mixture was greater than the % expected mortality.

In the next series the test system is Tobacco Budworm. The experiment in a line: Pesticidal action of synergistic mixtures, leaf dip bioassay on cotton leaves. The settings on record: Heliothis virescens, foliar, 120 h.
Source text: as §5, §6, §7, §8

Where [14] appears, read: dose rate 100 ppm, 5 days after treatment.
The mark [15] stands for this setting: read-out: % Mortality of Tobacco Budworm.

The structures appear in SMILES notation.

The mortality is the share of the test organisms that died. Consider `Cc1nc(C2CC2(Cl)Cl)nn1-c1c(Cl)cc(C(F)(F)F)cc1Cl` (stereo not shown) [I-2, 1-(2,6-dichloro-4-trifluoromethylphenyl)-3-(2,2-dichlorocyclopropyl)-5-methyl-1,2,4-triazole], for which the mortality at 300 ppm in series [1] and in series [2] was 100% throughout.

For the molecule `Cc1nc(C2(C)CC2(Cl)Cl)nn1-c1c(Cl)cc(C(F)(F)F)cc1Cl` (stereo not shown) [I-3, 3-(2,2-Dichloro-1-methyl-cyclopropyl)-1-(2,6-dichloro-4-trifluoromethyl-phenyl)-5-methyl-1H-[1,2,4]triazole], the mortality at 5 ppm in [3] and in series [5] was 100% throughout. Besides, the “mortality of Crematogaster spp.” value in series [4] is reported as 100%. For the same molecule, the mortality at 0.1 ppm in [6] was found to be 100%. Further, the “mortality of Reticulitermes flavipes” value in series [7] and in series [9] was 100% throughout. Further, in series [8], the mortality at 10 ppm stood at 100%. Further, the mortality at 300 ppm (in series [10]; in series [11]; with bean aphid (aphis fabae); in [12]; in [1]; in series [2]) was 100% in each case. Also, the mortality at 300 ppm in series [13] was 100%; in the series on Tobacco Budworm (dose rate 300 ppm, 5 days after treatment) it was 71.4%. Moreover, the mortality at 100 ppm with Colorado Potato Beetle (setting [14]) came out at 12.5%; in the series on Tobacco Budworm (setting [14]) it was 0%.

For `CC1(C)C(C=C(Cl)Cl)C1C(=O)OC(C#N)c1cccc(Oc2ccccc2)c1` (stereo not drawn) [alpha-cypermethrin, reference compound], in the series on Colorado Potato Beetle (read-out: % Mortality of Colorado Potato Beetle), the mortality at 0.06 ppm is 17.5%. Besides, in the series on Tobacco Budworm (setting [15]), the mortality at 0.03 ppm was determined as 0% and the mortality at 0.06 ppm worked out at 7.2%.

The values above are taken from US7754749B2, “Derivatives of a 1-phenyltriazole” (BASF Aktiengesellschaft, priority 2005, dated 2010).
